Laboratory results from patent US6608086B2, “Dihydropyridines and new uses thereof” (Synaptic Pharmaceutical Corporation, priority 1993, dated 2003).
Counter-ions that a name gives are not always drawn.

tested on: not given; experiment: not given; settings: not given

Structure (SMILES) | melting point
COC(=O)C1=C(C)NC(C)=C(C(=O)OCCCN2CCCCC2)C1c1ccc([N+](=O)[O-])cc1 (stereo not drawn) (as salt: hydrochloride) (hydrate or solvate) [Example 50, 1,4-Dihydro-5-methoxycarbonyl-2,6-dimethyl-4-(4-nitrophenyl)-3-[3-(piperidin-1-yl)propoxy]carbonylpyridine hydrochloride etherate] | 128 to 129 °C
COC(=O)C1=C(C)NC(C)=C(C(=O)NCCCN2CCCCC2)C1c1ccc([N+](=O)[O-])cc1 (stereo not drawn) (as salt: hydrochloride) (hydrate or solvate) [Example 51, 1,4-Dihydro-3-methoxycarbonyl-2,6-dimethyl-4-(4-nitrophenyl)-5-{N-[3-(piperidin-1-yl)propyl]}carboxamidopyridine hydrochloride etherate] | 150 to 150.5 °C
CCC1=C(C(=O)NC2CCN(Cc3ccccc3)CC2)C(c2ccc([N+](=O)[O-])cc2)C(C(=O)OC)=C(C)N1 (stereo not drawn) (as salt: hydrochloride) [Example 75, 2-Ethyl-1,4-dihydro-5-methoxycarbonyl-6-methyl-4-(4-nitro)phenyl-3-(N-(N-phenylmethyl)piperidin-4-yl)carboxamidopyridine hydrochloride] | 221 to 224 °C (dec.)
COC(=O)C1=C(C)NC(C)=C(C(=O)NCCCN2CCc3ccccc3C2)C1c1ccc([N+](=O)[O-])cc1 (stereo not drawn) (as salt: hydrochloride) (hydrate or solvate) [Example 59, 1,4-Dihydro-5-{N-[3-(1,2,3,4-tetrahydroisoquinolin-2-yl)propyl]}carboxamido-3-methoxycarbonyl-2,6-dimethyl-4-(4-nitrophenyl)pyridine hydrochloride hydrate] | 145 to 146 °C
CCC1=C(C(N)=O)C(c2ccc([N+](=O)[O-])cc2)C(C(=O)NCCCN2CCC(c3ccccc3)(c3ccccc3)CC2)=C(COCCN=[N+]=[N-])N1 (stereo not drawn) | 88 to 93 °C
COC(=O)C1=C(C)NC(C)=C(C(=O)NCCCCN2CCC(c3ccccc3)CC2)C1c1ccc([N+](=O)[O-])cc1 (stereo not drawn) (as salt: hydrochloride) (hydrate or solvate) [Example 3, 1,4-Dihydro-3-methoxycarbonyl-2,6-dimethyl-4-(4-nitrophenyl)-5-{N-[4-(4-phenylpiperidin-1-yl)butyl]}carbozamidopyridine hydrochloride hydrate] | 136 to 137 °C
CCC1=C(C(=O)NCCCN2CCC(c3ccccc3)(c3ccccc3)CC2)C(c2ccc([N+](=O)[O-])cc2)C(C(=O)NC)=C(COCCN=[N+]=[N-])N1 (stereo not drawn) (as salt: hydrochloride) [Example 151, 2-((2-Azidoethyl)oxy)methyl-6-ethyl-1,4-dihydro-3-(N-methyl)carboxamido-4-(4-nitro)phenyl-5-(N-(3-(4,4-diphenylpiperidin-1-yl)propyl))carboxamidopyridine] | 200 °C (dec.)
CCC1=C(C(N)=O)C(c2ccc([N+](=O)[O-])cc2)C(C(=O)NCCCN2CCC3(CC2)C(=O)NCN3c2ccccc2)=C(CC)N1 (stereo not drawn) (as salt: hydrochloride) (hydrate or solvate) [Example 105, 5-Carboxamido-2,6-diethyl-1,4-dihydro-4-(4-nitrophenyl)-3-{N-[3-(1-phenyl-4-oxo-1,3,8-triazaspiro[4.3]decan-8-yl)propyl]}carboxamidopyridine hydrochloride hydrate] | 187 °C (dec.)
COC(=O)C1(c2ccccc2)CCN(CCCNC(=O)C2=C(C)NC(C)=C(C(=O)OCCC#N)C2c2ccc([N+](=O)[O-])cc2)CC1 (stereo not drawn) [Example 203, 5-(2-Cyanoethoxycarbonyl)-1,4-dihydro-2,6-dimethyl-3-{N-[3-(4-methoxycarbonyl-4-phenylpiperidin-1-yl)propyl]}carbo xamido-4-(4-nitrophenyl)pyridine] | 73 to 74 °C
CCNC(=O)C1=C(C)NC(C)=C(C(=O)NCCCN2CCC(C(=O)OC)(c3ccccc3)CC2)C1c1ccc([N+](=O)[O-])cc1 (stereo not drawn) [Example 205, 1,4-Dihydro-2,6-dimethyl-5-(N-ethyl)carboxamido-3-{N-[3-(4-methoxycarbonyl-4-phenylpiperidin-1-yl)propyl]}carboxamido-4-(4-nitrophenyl)pyridine] | 117 to 118 °C
CCC1=C(C(=O)NCCCN2CCC(c3ccccc3)(c3ccccc3)CC2)C(c2ccc(N)cc2)C(C(=O)OC)=C(C)N1 (stereo not drawn) (as salt: salt) [Example 114, 4-(4-Aminophenyl)-2-ethyl-1,4-dihydro-5-methoxycarbonyl-6-methyl-3-(N-(3-(4,4-diphenylpiperidin-1-yl)propyl)carboxamido)-pyridine] | 169 to 172 °C (dec.)
CCC1=C(C(N)=O)C(c2ccc([N+](=O)[O-])cc2)C(C(=O)NCCCN2CCC(C#N)(c3ccccc3)CC2)=C(CC)N1 (racemic) (as salt: hydrochloride) (hydrate or solvate) [(±)-102, 5-Carboxamido-3-{N-[(4-cyano-4-phenylpiperidin-1-ly)propyl]carboxamido-2,6-diethyl-1,4-dihydro-4-(4-nitrophenyl)pyridine hydrochloride hydrate] | 230 °C (dec.)
COc1cc2c(cc1OC)CN(CCCNC(=O)C1=C(C)NC(C)=C(C(N)=O)C1c1ccc([N+](=O)[O-])cc1)CC2 (stereo not drawn) (as salt: hydrochloride) [Example 58, 5-Carboxamido-1,4-dihydro-3-{N-[3-(1,2,3,4-tetrahydro-6,7-dimethoxyisoquinolin-2-yl)propyl]}carboxamido-2,6-dimethyl-4-(4-nitrophenyl)pyridine hydrochloride] | 180 to 181 °C
CCC1=C(C(=O)OCCC#N)C(c2ccc([N+](=O)[O-])cc2)C(C(=O)NCCCN2CCC(c3ccccc3)(c3ccccc3)CC2)=C(COC)N1 (stereo not drawn) (hydrate or solvate) [Example 135] | 120 to 125 °C

biological target: T1, α1A Human Adrenergic Receptor (Homo sapiens, UniProt P25100); experiment: Radioligand binding, [3H]prazosin, cloned human α1A adrenergic receptor; settings: [3H]prazosin, cloned human receptor, LM(tk-) cell membranes; mean; read-out: PKi alpha-1 1a (converted)
T1 construct: The entire coding region of α1A (1719 bp); expressed in transfected cells
T1 sequence (P25100 1-572): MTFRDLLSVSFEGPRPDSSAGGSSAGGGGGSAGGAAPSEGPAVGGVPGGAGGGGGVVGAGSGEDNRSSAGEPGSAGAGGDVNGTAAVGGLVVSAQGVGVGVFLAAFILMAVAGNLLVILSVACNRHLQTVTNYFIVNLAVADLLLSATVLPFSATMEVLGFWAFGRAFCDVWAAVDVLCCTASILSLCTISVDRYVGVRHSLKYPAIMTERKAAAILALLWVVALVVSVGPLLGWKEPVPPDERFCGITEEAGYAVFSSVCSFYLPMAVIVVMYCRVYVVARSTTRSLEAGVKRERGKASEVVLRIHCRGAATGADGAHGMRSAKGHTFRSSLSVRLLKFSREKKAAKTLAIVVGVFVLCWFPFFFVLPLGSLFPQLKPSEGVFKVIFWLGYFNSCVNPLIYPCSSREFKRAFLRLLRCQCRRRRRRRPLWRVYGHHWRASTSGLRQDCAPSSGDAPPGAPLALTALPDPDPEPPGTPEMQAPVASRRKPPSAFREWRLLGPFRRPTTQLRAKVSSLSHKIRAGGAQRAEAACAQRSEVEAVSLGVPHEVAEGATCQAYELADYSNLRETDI
Experimental: The protocols for these experiments are given below.
These cell lines were prepared by transfecting the cloned cDNA or cloned genomic DNA or constructs containing both genomic DNA and cDNA encoding the human α-adrenergic receptors as follows:
α1A Human Adrenergic Receptor:
The cells were grown, in a controlled environment (37° C., 5% CO2), as monolayers in Dulbecco's modified Eagle's Medium (GIBCO, Grand Island, N.Y.) containing 25 mM glucose and supplemented with 10% bovine calf serum, 100 units/ml penicillin g, and 100 μg/ml streptomycin sulfate.
Radioligand Binding Assays:
Transfected cells from culture flasks were scraped into 5 ml of 5 mM Tris-HCl, 5 mM EDTA, pH 7.5, and lysed by sonication. The cell lysates were centrifuged at 1000 rpm for 5 min at 4° C., and the supernatant was centrifuged at 30,000× g for 20 min at 4° C. The pellet was suspended in 50 mM Tris-HCl, 1 mM MgCl2, and 0.1% ascorbic acid at pH 7.5. Binding of the α1 antagonist [^3H]prazosin (0.5 nM, specific activity 76.2 Ci/mmol) to membrane preparations of LM(tk−) cells was done in a final volume of 0.25 ml and incubated at 37° C. for 20 min. Nonspecific binding was determined in the presence of 10 μM phentolamine. The reaction was stopped by filtration through GF/B filters using a cell harvester.

Structure (SMILES) | Ki
COC(=O)C1(c2ccccc2)CCN(CCCNC(=O)C2=C(C)NC(C)=C(C(=O)OCCC#N)C2c2ccc([N+](=O)[O-])cc2)CC1 (stereo not drawn) [Example 203, 5-(2-Cyanoethoxycarbonyl)-1,4-dihydro-2,6-dimethyl-3-{N-[3-(4-methoxycarbonyl-4-phenylpiperidin-1-yl)propyl]}carbo xamido-4-(4-nitrophenyl)pyridine] | 759 nM
